Calls of active or inactive are those of the source.
What was measured:
[1] = cytotoxicity dependent on PAX8, dose response, cell-based, plate reader, dry powder (AID 743049); assay type: functional
[2] = cytotoxicity in HEK-293T NF-kB-Luc cells, dose response, cytotoxicity control for B/T-cell NF-kB inhibitor project, cell-based, uHTS hits (AID 489019); assay type: functional;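 further: IC50 reflects cytotoxicity as loss of cell viability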
[3] = HepG2 cell cytotoxicity, dose response, cytotoxicity control, plate reader, cherry-pick, antagonist series (AID 743416); assay type: functional, cell-based
A-375 [4] = experiment: A375 melanoma cell viability reduction, dose response, counter-screen for MITF modulator project, cherry-pick samples, set 2 (AID 540335); assay type: functional, cell-based; conditions: Homo sapiens
[5] = biological target: T1, Microphthalmia-associated transcription factor (Homo sapiens, UniProt O75030); experiment: TRPM1 promoter luciferase signal decrease, dose response, MITF inhibitor project, cell-based, SK-MEL-5, cherry-picked, set 3 (AID 493073); assay type: functional
T1 sequence (O75030 whole entry): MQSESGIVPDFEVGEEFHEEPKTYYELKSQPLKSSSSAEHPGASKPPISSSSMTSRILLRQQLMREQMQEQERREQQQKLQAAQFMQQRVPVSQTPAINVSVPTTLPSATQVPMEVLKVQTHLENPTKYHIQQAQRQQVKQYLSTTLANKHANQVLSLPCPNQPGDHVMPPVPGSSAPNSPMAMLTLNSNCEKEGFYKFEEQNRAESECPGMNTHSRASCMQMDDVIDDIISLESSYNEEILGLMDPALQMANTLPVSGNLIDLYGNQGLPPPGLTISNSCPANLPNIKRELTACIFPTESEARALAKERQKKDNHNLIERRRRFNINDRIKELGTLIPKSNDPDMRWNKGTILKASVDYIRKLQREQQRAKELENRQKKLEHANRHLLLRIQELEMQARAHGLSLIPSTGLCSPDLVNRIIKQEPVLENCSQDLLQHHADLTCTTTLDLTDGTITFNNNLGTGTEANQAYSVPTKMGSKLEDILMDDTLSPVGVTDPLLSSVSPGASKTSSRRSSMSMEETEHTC

[6] = PAX5 activity inhibitors, dose response, selectivity assay for PAX8 inhibitor project, cell-based, plate reader, dry powder samples (AID 743047); assay type: functional;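 further: HEK293 cells carrying a Pax5 driven CD19 promoter luciferase reporter; potency of inhibitors that lower reporter luminescence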
[7] = LGR2 antagonists, dose response, cell-based, HEK293, CRE-luciferase reporter, cherry pick, set 2 (AID 743343); assay type: functional;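 further: transfected cells were stimulated with diluted bursicon conditioned medium after compound addition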
[8] = IGROV1 ovarian cancer cell cytotoxicity, dose response, PAX8 inhibitor project, plate reader, dry powder samples (AID 743043); assay type: functional, cell-based; conditions: IGROV-1
[9] = HEK293 cell cytotoxicity, dose response, cytotoxicity control, plate reader, cherry-picked samples (AID 743446); assay type: functional, cell-based
[10] = cytotoxicity in COV434 cells, dose response, cytotoxicity control for PAX8 inhibitor project, cell-based, plate reader, dry powder, SA7 (AID 743145); assay type: functional
[11] = MC4R antagonists, dose response, counter-screen for LGR2 antagonist project, cell-based, plate reader, cherry pick (AID 743444); assay type: functional;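 further: transfected HEK 293 cells stimulated with alpha-MSH peptide; potency of inhibitors of the alpha-MSH evoked signal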
[12] = biological target: T2, Heat shock factor protein 1 (Mus musculus, UniProt P38532); experiment: inhibition of MG132-induced HSE-luciferase signal, confirmation, cell-based, NIH3T3, luminescence, dose retest (AID 2382); assay type: functional;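 further: NIH3T3 fibroblasts with HSF1-driven luciferase reporter stressed by proteasome inhibitor MG132; luminescence from HSF1-driven luciferase expression after 8 hours of MG132 stress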
T2 sequence (P38532 whole entry): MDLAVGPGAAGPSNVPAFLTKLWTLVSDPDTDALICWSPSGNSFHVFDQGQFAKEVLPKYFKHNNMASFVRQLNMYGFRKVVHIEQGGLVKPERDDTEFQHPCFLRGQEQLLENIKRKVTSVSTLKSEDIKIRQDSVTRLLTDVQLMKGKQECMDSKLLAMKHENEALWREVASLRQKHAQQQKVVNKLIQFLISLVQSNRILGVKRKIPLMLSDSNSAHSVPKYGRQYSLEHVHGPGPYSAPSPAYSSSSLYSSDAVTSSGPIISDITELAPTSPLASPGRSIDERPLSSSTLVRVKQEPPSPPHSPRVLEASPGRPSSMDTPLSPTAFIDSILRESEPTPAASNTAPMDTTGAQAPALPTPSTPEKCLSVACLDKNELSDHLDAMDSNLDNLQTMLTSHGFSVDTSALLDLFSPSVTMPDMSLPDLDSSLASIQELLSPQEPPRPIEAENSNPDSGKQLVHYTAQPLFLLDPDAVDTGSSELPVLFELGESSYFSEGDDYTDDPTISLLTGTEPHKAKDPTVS

A-375 [13] = experiment: MITF: Counter assay: A375 proliferation Measured in Cell-Based System Using Plate Reader - 2084-03_Inhibitor_Dose_DryPowder_Activity. [Related pubchem assays (depositor defined):AID488944]; assay type: functional; conditions: Homo sapiens
[14] = cytotoxicity in OV-90 ovarian cancer cells, dose response, PAX8 inhibitor project, cell-based, plate reader, dry powder, SA8 (AID 743149); assay type: functional
[15] = cytotoxicity in COV362 ovarian cancer cells, dose response, cytotoxicity control for PAX8 inhibitor project, cell-based, plate reader, dry powder, SA12 (AID 743144); assay type: functional
Jurkat = experiment: antigen receptor-induced NF-kB inhibitors, dose response, Jurkat, luciferase reporter, luminescence, B- and T-cell (AID 489004); assay type: functional, cell-based; conditions: Homo sapiens;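 further: NF-kB luciferase reporter Jurkat cells stimulated with PMA plus ionomycin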
Paired box protein Pax-8 = Paired box protein Pax-8 (Homo sapiens, UniProt Q06710); experiment: inhibitors of PAX8-driven TPO luciferase reporter, dose response, RMG-I cells, cherry-pick (AID 687027); assay type: functional, cell-based;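 further: luciferase reporter driven by Pax8 target thyroperoxidase promoter measured by SteadyGlo luminescence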
Sequence of Paired box protein Pax-8 (Q06710 whole entry): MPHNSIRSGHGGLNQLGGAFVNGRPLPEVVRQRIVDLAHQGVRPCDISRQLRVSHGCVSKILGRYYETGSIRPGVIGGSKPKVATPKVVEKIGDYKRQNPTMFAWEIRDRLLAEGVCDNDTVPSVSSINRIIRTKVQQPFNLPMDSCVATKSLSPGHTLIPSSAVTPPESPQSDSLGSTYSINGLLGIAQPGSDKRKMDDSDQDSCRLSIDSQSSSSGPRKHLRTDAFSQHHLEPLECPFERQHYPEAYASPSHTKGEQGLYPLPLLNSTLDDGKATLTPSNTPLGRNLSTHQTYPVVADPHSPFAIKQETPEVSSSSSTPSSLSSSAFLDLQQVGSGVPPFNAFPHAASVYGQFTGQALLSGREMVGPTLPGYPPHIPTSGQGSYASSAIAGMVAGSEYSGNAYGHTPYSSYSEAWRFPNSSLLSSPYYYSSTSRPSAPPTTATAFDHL

[16] = PAX2 cell-based inhibition, dose response, selectivity assay for PAX8 inhibitor project, plate reader, dry powder samples (AID 743048); assay type: functional;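 further: HEK293 cells carrying a WT1 promoter luciferase reporter driven by expressed Pax2; potency is for inhibition of Pax2 driven reporter signal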
[17] = biological target: sn-1-specific diacylglycerol lipase ABHD11 (Mus musculus, UniProt Q8K4F5); experiment: Late stage assay provider results from the probe development effort to identify inhibitors of LYPLA1 and LYPLA2: Gel-based Activity-Based Protein Profiling (ABPP) IC50 for off-target ABHD11. [Related pubchem assays (depositor defined):AID2174, AID2202, AID2203, AID2233, AID504482, AID504498, AID504505, AID504507, AID504510, AID504520, AID504522, AID504892]; assay type: functional
Sequence of sn-1-specific diacylglycerol lipase ABHD11 (Q8K4F5 whole entry): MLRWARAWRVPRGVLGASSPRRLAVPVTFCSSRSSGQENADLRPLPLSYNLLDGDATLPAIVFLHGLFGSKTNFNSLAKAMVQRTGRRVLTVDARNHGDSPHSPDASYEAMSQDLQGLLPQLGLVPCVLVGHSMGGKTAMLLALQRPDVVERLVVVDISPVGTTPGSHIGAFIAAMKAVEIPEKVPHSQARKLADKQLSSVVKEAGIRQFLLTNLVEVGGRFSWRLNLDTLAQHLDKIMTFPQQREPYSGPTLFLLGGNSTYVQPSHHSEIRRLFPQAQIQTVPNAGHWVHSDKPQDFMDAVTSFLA

Hexokinase HKDC1 = biological target: T3, Hexokinase HKDC1 (Homo sapiens, UniProt Q2TB90); experiment: HKDC1 hexokinase activators, dose response, biochemical, W721R variant (AID 504730); assay type: functional
T3 sequence (Q2TB90 whole entry): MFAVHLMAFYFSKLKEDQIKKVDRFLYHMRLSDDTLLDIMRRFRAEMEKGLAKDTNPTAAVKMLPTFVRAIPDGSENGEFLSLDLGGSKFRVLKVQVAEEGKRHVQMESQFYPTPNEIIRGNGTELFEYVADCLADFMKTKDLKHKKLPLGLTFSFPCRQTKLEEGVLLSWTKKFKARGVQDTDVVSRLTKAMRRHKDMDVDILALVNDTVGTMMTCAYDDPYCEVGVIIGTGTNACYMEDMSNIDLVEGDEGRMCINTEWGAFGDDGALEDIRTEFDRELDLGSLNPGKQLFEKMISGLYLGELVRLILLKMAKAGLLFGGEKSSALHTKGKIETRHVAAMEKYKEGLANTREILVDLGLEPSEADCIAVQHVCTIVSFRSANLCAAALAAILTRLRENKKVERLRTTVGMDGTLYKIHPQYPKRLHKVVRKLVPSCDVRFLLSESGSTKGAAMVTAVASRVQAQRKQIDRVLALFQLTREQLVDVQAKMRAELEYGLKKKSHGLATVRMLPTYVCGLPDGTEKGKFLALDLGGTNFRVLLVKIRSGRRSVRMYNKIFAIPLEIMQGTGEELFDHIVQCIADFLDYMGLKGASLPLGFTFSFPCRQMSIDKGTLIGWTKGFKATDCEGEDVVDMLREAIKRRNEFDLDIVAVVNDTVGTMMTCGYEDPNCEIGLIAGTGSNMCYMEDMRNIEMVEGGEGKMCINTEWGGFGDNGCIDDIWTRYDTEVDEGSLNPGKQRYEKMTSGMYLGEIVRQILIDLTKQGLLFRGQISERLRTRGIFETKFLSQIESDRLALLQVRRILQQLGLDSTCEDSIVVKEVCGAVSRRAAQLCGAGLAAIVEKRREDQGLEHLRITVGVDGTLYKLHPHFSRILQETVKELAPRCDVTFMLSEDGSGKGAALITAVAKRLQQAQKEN

[18] = biological target: Voltage-gated inwardly rectifying potassium channel KCNH2 (Homo sapiens, UniProt Q12809); conditions: Potency;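 further: confirmatory quantitative high-throughput screen measuring inhibition of hERG channel activity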
Sequence of Voltage-gated inwardly rectifying potassium channel KCNH2 (Q12809 whole entry): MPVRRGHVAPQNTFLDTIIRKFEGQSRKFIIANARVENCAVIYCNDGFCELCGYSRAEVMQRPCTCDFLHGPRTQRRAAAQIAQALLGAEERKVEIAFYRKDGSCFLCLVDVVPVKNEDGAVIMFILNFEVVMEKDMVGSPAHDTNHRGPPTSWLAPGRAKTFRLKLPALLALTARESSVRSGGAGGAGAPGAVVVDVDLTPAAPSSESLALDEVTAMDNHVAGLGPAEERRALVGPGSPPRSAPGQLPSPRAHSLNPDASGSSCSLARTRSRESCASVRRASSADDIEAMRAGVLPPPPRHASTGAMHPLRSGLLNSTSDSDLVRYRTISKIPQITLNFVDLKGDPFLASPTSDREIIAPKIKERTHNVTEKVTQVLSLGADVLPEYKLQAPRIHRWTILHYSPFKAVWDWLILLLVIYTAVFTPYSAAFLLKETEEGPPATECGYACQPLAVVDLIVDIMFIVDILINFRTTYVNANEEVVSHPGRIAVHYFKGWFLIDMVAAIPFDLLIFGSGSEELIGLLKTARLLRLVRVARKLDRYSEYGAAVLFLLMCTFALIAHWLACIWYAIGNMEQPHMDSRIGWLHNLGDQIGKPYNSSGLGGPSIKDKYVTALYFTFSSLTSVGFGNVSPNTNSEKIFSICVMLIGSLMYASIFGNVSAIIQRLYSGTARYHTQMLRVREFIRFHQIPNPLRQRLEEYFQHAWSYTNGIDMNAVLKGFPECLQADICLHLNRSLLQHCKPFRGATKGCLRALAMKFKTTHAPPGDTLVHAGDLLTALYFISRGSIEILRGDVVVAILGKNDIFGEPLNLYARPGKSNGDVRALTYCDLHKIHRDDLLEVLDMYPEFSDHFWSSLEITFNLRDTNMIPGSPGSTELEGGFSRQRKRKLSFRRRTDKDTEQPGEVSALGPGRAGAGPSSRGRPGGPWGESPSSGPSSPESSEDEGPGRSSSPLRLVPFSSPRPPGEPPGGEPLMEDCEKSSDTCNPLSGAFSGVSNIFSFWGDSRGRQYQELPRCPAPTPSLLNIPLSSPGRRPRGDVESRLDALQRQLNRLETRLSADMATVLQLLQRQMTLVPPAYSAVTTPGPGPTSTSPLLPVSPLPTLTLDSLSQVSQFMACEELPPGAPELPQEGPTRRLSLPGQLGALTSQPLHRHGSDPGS

[19] = biological target: Glucose-6-phosphate 1-dehydrogenase (Homo sapiens, UniProt P11413); experiment: human G6PD enzyme inhibitors, dose response, selectivity assay for P. falciparum G6PD inhibitor project, biochemical, fluorescence (AID 504792); assay type: functional
Sequence of Glucose-6-phosphate 1-dehydrogenase (P11413 whole entry): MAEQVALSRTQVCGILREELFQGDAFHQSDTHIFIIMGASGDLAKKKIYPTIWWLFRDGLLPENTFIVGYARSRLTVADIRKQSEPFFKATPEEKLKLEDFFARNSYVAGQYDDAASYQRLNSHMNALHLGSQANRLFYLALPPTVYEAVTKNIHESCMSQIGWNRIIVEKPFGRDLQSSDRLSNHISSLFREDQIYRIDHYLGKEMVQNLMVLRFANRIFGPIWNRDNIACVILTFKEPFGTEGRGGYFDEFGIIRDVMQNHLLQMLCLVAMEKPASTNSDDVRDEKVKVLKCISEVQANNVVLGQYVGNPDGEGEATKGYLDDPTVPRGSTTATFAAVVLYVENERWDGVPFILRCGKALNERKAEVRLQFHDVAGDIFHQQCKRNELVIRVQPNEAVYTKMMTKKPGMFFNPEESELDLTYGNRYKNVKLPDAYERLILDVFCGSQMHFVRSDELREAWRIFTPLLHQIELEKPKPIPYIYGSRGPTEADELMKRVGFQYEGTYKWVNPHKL

Streptococcus = experiment: Group A Streptococcus viability loss, dose response, counter-screen for streptokinase expression inhibitor project, luminescence, BacTiterGlo (AID 1915); assay type: functional, organism-based;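 further: potency for reduction of bacterial viability or growth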
[20] = biological target: Phosphoethanolamine/phosphocholine phosphatase (Homo sapiens, UniProt Q8TCT1); experiment: SAR assay for compounds that inhibit PHOSPHO1. [Related pubchem assays (depositor defined):AID1545, AID1565, AID1574]
Sequence of Phosphoethanolamine/phosphocholine phosphatase (Q8TCT1 whole entry, the tested form may be a part): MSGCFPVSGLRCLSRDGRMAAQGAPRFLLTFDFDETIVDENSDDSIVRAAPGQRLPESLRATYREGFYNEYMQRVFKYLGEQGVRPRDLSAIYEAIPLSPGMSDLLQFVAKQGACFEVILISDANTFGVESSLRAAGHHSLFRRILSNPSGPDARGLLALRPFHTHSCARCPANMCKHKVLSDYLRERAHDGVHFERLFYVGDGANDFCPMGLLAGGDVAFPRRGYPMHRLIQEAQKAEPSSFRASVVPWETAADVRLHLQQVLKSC

Perilipin-1/ABHD5 = Perilipin-1/ABHD5 (Homo sapiens, UniProt O60240+Q8WTS1); experiment: Luminescence-based biochemical high throughput dose response assay for inhibitors of the interaction of the lipase co-activator protein, abhydrolase domain containing 5 (ABHD5) with perilipin-1 (PLIN1) (2K validation set). [Related pubchem assays (depositor defined):AID493027, AID493057]
Sequence of Perilipin-1/ABHD5 (Q8WTS1 whole entry, the tested form may be a part): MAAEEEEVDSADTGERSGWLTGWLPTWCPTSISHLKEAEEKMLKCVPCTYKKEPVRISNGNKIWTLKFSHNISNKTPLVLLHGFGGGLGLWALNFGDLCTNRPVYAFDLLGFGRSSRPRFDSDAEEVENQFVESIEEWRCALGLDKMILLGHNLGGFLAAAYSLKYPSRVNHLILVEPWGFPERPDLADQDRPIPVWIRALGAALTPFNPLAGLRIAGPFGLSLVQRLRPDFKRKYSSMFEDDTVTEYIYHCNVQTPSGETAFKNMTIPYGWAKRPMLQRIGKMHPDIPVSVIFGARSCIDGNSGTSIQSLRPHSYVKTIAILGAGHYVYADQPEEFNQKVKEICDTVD
Sequence of Perilipin-1/ABHD5 (O60240 whole entry, the tested form may be a part): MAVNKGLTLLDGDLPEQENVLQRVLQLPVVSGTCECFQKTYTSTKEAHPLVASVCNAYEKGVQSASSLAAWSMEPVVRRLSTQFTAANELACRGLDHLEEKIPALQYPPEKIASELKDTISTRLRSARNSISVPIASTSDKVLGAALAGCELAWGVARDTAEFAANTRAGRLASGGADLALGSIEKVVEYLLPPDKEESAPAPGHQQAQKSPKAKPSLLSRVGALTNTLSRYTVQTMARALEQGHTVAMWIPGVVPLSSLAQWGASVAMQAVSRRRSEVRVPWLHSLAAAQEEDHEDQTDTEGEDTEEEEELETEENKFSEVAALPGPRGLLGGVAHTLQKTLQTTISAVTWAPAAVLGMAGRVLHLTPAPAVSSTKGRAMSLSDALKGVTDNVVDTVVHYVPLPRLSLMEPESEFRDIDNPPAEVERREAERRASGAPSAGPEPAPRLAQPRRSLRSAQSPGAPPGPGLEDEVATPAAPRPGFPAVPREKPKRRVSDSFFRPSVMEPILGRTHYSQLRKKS

[21] = biological target: 1-acylglycerol-3-phosphate O-acyltransferase ABHD5/Perilipin-5 (Homo sapiens, UniProt Q00G26+Q8WTS1); experiment: Luminescence-based biochemical high throughput dose response assay for inhibitors of the interaction of the lipase co-activator protein, abhydrolase domain containing 5 (ABHD5) with perilipin-5 (MLDP; PLIN5) (2K validation set). [Related pubchem assays (depositor defined):AID493035, AID493241]
Sequence of 1-acylglycerol-3-phosphate O-acyltransferase ABHD5/Perilipin-5 (Q00G26 whole entry, the tested form may be a part): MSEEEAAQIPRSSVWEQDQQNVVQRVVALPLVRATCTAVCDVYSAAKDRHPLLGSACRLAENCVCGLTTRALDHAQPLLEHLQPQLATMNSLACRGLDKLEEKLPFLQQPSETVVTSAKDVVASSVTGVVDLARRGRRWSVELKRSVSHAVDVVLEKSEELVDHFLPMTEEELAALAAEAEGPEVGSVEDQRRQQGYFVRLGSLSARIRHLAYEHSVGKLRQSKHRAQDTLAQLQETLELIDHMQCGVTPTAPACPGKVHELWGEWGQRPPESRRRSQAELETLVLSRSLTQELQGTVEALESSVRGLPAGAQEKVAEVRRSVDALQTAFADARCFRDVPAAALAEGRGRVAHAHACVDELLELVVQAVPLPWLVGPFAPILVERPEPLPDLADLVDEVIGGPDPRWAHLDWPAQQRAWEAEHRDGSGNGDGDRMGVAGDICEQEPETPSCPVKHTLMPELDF
Sequence of 1-acylglycerol-3-phosphate O-acyltransferase ABHD5/Perilipin-5 (Q8WTS1 whole entry, the tested form may be a part): as the sequence (Q8WTS1 whole entry, the tested form may be a part) above

[22] = biological target: Eukaryotic translation initiation factor 4E (Mus musculus, UniProt P63073); experiment: eIF4E–eIF4G protein interaction inhibitors, dose response, biochemical, TR-FRET (AID 855); assay type: functional;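 further: potency for disrupting eIF4E binding to eIF4GI seen as loss of FRET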
Sequence of Eukaryotic translation initiation factor 4E (P63073 whole entry): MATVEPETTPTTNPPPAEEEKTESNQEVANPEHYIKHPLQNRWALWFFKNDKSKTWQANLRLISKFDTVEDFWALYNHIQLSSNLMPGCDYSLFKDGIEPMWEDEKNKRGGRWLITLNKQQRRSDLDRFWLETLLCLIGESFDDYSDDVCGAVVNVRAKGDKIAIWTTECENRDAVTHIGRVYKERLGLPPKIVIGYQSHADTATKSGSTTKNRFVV

[23] = test system: Streptococcus sp. 'group A'; experiment: growth inhibition of control SK(-) GAS strain, dose response, counter-screen for streptokinase expression inhibitor project, luminescence, kanamycin, BacTiterGlo, confirmation (AID 1900); assay type: functional, organism-based; conditions: read-out: EC50
Large T antigen = Large T antigen (Simian virus 40, UniProt P03070); assay type: functional, Betapolyomavirus macacae;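 further: Confirmatory-stage PubChem screen for compounds that inhibit SV40 T antigen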
Beta-arrestin-1 = Beta-arrestin-1 (Homo sapiens, UniProt P49407); experiment: inhibitors of arrestin peptide binding to AP2, dose response, biochemical, cherry pick 1, beta2-adaptin appendage, flow cytometry (AID 588783); assay type: functional
Sequence of Beta-arrestin-1 (P49407 whole entry): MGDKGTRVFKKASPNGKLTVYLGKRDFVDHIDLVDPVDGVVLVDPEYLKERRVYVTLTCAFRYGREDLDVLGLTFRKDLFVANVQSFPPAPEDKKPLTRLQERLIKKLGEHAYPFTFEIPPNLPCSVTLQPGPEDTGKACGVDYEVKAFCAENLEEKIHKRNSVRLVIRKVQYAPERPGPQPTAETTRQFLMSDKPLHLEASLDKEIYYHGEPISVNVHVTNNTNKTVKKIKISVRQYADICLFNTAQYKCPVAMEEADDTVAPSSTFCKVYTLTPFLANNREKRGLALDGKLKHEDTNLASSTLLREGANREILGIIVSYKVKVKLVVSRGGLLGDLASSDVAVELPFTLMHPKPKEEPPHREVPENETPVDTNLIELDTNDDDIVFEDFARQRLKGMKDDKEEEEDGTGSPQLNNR

Hexokinase-1 = biological target: T4, Hexokinase-1 (Homo sapiens, UniProt P19367); experiment: hexokinase 1 activators, dose response, selectivity assay for HKDC1 activator project, biochemical (AID 504762); assay type: functional
T4 sequence (P19367 whole entry): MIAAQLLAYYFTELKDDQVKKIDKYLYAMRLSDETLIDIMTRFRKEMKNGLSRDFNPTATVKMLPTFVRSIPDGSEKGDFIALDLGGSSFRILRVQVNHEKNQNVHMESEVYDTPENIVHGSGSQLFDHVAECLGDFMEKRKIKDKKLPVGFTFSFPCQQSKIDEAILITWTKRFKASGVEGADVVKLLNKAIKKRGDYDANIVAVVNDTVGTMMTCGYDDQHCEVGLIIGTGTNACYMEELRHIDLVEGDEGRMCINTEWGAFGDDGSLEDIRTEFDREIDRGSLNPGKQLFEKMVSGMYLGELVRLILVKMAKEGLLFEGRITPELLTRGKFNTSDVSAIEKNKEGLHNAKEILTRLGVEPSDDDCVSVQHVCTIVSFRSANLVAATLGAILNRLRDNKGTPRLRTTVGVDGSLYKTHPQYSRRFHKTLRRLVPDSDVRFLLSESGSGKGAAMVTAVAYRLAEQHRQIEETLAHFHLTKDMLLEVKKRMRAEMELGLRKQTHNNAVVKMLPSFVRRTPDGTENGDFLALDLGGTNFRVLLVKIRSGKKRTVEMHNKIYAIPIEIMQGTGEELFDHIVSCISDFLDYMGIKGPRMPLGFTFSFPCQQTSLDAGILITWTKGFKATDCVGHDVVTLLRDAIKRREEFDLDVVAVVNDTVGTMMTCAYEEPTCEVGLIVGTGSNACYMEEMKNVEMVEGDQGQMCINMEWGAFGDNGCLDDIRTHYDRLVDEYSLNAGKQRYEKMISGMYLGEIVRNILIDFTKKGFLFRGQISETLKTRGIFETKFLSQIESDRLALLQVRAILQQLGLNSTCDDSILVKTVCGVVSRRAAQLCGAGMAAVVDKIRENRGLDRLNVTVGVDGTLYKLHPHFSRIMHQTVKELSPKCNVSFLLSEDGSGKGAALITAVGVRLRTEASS

O=C(/C=C/c1ccccc1)Nc1cccc(C(=O)O)c1
AC50 [1]: 32.2 µM (active)
IC50 [2]: > 80 µM (inactive)
AC50 [3]: > 52 µM (inactive)
AC50 (A-375 [4]): > 35 µM (active)
AC50 [5]: 1.52 µM (active)
AC50 [6]: 2.67 µM (active)
AC50 [7]: 0.833 µM (active)
AC50 [8]: 49 µM (active)
AC50 [9]: > 52 µM (inactive)
AC50 [10]: > 100 µM (inactive)
AC50 [11]: 0.592 µM (active)
EC50 [12]: 1.73 µM (active)
AC50 (A-375 [13]): > 35 µM (active)
AC50 [14]: > 100 µM (inactive)
AC50 [15]: 77.2 µM (active)
IC50 (Jurkat): 1.4 µM (active)
AC50 (Paired box protein Pax-8): 4.06 µM (active)
AC50 [16]: 2.07 µM (active)

CC(C)(C)C1CCN(C(=O)n2ncc(C(O)(c3ccccc3)c3ccccc3)n2)CC1
IC50 [17]: 0.01 µM (active)

O=c1c2ccccc2[se]n1-c1ccccc1 [EBSELEN]
EC50 (Hexokinase HKDC1): 38.8 µM (inactive)
AC50 [18]: 35.5 µM (inconclusive)
IC50 [19]: 13.2 µM (active)
EC50 (Streptococcus): 0.975 µM (active)
IC50 [20]: 0.111 µM (active)
IC50 (Perilipin-1/ABHD5): 3.41 µM (active)
IC50 [21]: 1.1 µM (active)
IC50 [22]: 1.15 µM (active)
EC50 [23]: 1.1 µM (active)
IC50 (Large T antigen): 13.9 µM (active)
IC50 (Beta-arrestin-1): 1.52 µM (active)
EC50 (Hexokinase-1): 41.9 µM (inactive)

— ChEMBL document CHEMBL1201862, “PubChem BioAssay data set” (2004)
